The results in this text go back to patent publication US7858621B2 (Amorepacific Corporation, priority 2006, dated 2010).

Some results are limits rather than exact numbers.

The target of the test is T1, vanilloid receptor (Rattus norvegicus, UniProt O35433).
T1 construct: DRG nerve cells from the primary culture of 2 days were equilibrated; endogenous in cells; host or cells: primary culture of dorsal root ganglion neurons from neonatal SD rats
T1 sequence (O35433 whole entry): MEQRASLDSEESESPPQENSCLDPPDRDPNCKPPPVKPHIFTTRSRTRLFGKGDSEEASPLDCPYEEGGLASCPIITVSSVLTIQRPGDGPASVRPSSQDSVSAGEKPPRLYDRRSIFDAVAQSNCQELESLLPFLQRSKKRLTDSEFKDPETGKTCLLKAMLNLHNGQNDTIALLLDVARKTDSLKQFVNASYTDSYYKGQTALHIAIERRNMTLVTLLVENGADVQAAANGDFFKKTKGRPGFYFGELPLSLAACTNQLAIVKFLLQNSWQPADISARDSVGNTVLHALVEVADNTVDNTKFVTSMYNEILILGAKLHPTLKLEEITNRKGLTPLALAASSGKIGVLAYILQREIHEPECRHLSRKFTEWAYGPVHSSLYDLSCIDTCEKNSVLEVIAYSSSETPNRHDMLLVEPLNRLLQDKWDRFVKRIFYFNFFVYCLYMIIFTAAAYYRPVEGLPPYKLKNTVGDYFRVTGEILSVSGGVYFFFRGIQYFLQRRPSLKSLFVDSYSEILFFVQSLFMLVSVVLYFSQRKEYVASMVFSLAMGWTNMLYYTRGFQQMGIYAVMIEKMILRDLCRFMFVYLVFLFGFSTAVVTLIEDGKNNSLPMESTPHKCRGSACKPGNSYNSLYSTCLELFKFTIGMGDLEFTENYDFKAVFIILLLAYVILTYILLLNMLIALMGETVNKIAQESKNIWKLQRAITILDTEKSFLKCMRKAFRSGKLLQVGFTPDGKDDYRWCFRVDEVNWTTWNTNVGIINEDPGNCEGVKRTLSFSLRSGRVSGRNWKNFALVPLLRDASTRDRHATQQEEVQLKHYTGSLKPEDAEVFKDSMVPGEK
The test can be described thus: 45Ca influx test in cultured neonatal rat DRG neurons, inhibition of capsaicin response. The format is cell-based. The settings on record: neonatal rat DRG neurons, capsaicin 0.5 μM, 45Ca influx; read-out: Antagonist Calcium Uptake Test (IC50). The method, boiled down:
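45Ca influx measured by scintillation counting of SDS-eluted neurons after 10 min at room temperature with test compound, 0.5 μM capsaicin (final) and 10 μCi/ml 45Ca in Ca/Mg-free HEPES-HBSS pH 7.4. Cells: primary DRG neurons from newborn SD rats, cultured 2 days with NGF and Ara-C.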
Take `Cc1cc(CNC(=O)/C=C/c2ccc(C(F)(F)F)nc2CC(C)C)cc(F)c1NS(C)(=O)=O` [Example 164, N-(3-Fluoro-4-methanesulfonylamino-5-methyl-benzyl)-3-(2-isobutyl-6-trifluoromethyl-pyridin-3-yl)-acrylamide]: the IC50 was determined as 0.083 µM.

Take `C=Cc1cc(CNC(=O)/C=C/c2ccc(C(C)(C)C)nc2)cc(F)c1NS(C)(=O)=O` [Example 10, 3-(6-tert-Butyl-pyridin-3-yl)-N-(3-fluoro-4-methanesulfonylamino-5-vinyl-benzyl)-acrylamide]: the IC50 amounted to 0.28 µM.

In the case of `C#Cc1cc(CNC(=O)/C=C(/CCC)c2ccc(C(F)(F)F)nc2CCC)cc(F)c1NS(C)(=O)=O` [Example 275], the IC50 turned out to be 0.31 µM.

`C#Cc1cc(CNC(=O)/C=C/c2ccc(C(F)(F)F)nc2N(CC)CC)cc(F)c1NS(C)(=O)=O` [Example 38, 3-(2-Diethylamino-6-trifluoromethyl-pyridin-3-yl)-N-(3-ethynyl-5-fluoro-4-methanesulfonylamino-benzyl)-acrylamide]: the IC50 was found to be 0.22 µM.

On to `CCC/C(=C/C(=O)NCc1ccc(NS(C)(=O)=O)c(Cl)c1)c1ccc(C(F)(F)F)nc1CCC` [Example 271], for which the IC50 came out at 1.3 µM.

As to `C#Cc1cc(CNC(=O)/C=C/c2ccc(C(F)(F)F)nc2N(C)CCC)cc(F)c1NS(C)(=O)=O` [Example 159, N-(3-Ethynyl-5-fluoro-4-methanesulfonylamino-benzyl)-3-[2-(N-methyl-N-propyl-amino)-6-trifluoromethyl-pyridin-3-yl]-acrylamide], the IC50 came out at 0.27 µM.

Regarding `C#Cc1cc(CNC(=O)COc2ccc(C(C)(C)C)nc2)cc(F)c1NS(C)(=O)=O` [Examples 34], the IC50 was more than 10 µM.

On to `C#Cc1cc(CNC(=O)/C=C/c2ccc(C(F)(F)F)nc2/C=C/c2ccccc2)cc(F)c1NS(C)(=O)=O` [Example 157, N-(3-Ethynyl-5-fluoro-4-methanesulfonylamino-benzyl)-3-(2-styryl-6-trifluoromethyl-pyridin-3-yl)-acrylamide], for which the IC50 amounted to 0.45 µM.

For the compound `C#Cc1cc(CNC(=O)C#Cc2ccc(C(F)(F)F)nc2NCCCC)cc(F)c1NS(C)(=O)=O` [Example 260, 3-(2-Butylamino-6-trifluoromethyl-pyridin-3-yl)-propynoic acid, 3-ethynyl-5-fluoro-4-methanesulfonylamino-benzylamide], the IC50 was 0.81 µM.

As for `C#Cc1cc(CNC(=O)/C=C/c2ccc(Br)nc2)cc(F)c1NS(C)(=O)=O` [Example 15, 3-(6-Bromo-pyridin-3-yl)-N-(3-ethynyl-5-fluoro-4-methanesulfonylamino-benzyl)-acrylamide], the IC50 came to 5.9 µM.

With `COCCNc1nc(C(F)(F)F)ccc1/C=C/C(=O)N[C@H](C)c1ccc(NS(C)(=O)=O)c(F)c1` [Example 212, (R)—N-[1-(3-Fluoro-4-methanesulfonylamino-phenyl)-ethyl]-3-[2-(2-methoxy-ethylamino)-6-trifluoromethyl-pyridin-3-yl]-acrylamide], the IC50 came out at 0.11 µM.

As to `CC(C)(C)c1ccc(/C=C/C(=O)NCc2ccc(NS(C)(=O)=O)c(Cl)c2)cn1` [Examples 2], the IC50 is 1.3 µM.

In the case of `C=Cc1cc(CNC(=O)/C=C/c2ccc(C(F)(F)F)nc2Oc2ccccc2)cc(F)c1NS(C)(=O)=O` [Example 133, N-(3-Fluoro-4-methanesulfonylamino-5-vinyl-benzyl)-3-(2-phenoxy-6-trifluoromethyl-pyridin-3-yl)-acrylamide], the IC50 was determined as 0.28 µM.

For the compound `CCCNc1nc(C(F)(F)F)ccc1/C=C/C(=O)N[C@H](C)c1cc(F)c(NS(C)(=O)=O)c(F)c1` [Example 229, (R)—N-[1-(3,5-Difluoro-4-methanesulfonylamino-phenyl)-ethyl]-3-(2-propylamino-6-trifluoromethyl-pyridin-3-yl)-acrylamide], the IC50 is 0.015 µM.

For the compound `CCCNc1nc(C(F)(F)F)ccc1/C=C/C(=O)NCc1cc(C)c(NS(C)(=O)=O)c(F)c1` [Example 223, N-(3-Fluoro-4-methanesulfonylamino-5-methyl-benzyl)-3-(2-propylamino-6-trifluoromethyl-pyridin-3-yl)-acrylamide], the IC50 turned out to be 0.055 µM.

On to `C#Cc1cc(CNC(=O)/C=C/c2ccc(C(F)(F)F)nc2CCc2ccccc2)cc(F)c1NS(C)(=O)=O` [Example 142, N-(3-Ethynyl-5-fluoro-4-methanesulfonylamino-benzyl)-3-(2-phenethyl-6-trifluoromethyl-pyridin-3-yl)-acrylamide], for which the IC50 stood at 0.035 µM.

Take `CC(C)Cc1nc(C(F)(F)F)ccc1/C=C/C(=O)NCc1cc(F)c(NS(C)(=O)=O)c(C#N)c1` [Example 163, N-(3-Cyano-5-fluoro-4-methanesulfonylamino-benzyl)-3-(2-isobutyl-6-trifluoromethyl-pyridin-3-yl)-acrylamide]: the IC50 is 0.15 µM.

Regarding `CS(=O)(=O)Nc1ccc(CNC(=O)/C=C/c2ccc(C(F)(F)F)nc2OC2CCOC2)cc1F` (stereo not shown) [Example 104, 3-[2-(Tetrahydro-furan-3-yloxy)-6-trifluoromethyl-pyridin-3-yl]-N-(3-fluoro-4-methanesulfonylamino-benzyl)-acrylamide], the IC50 is 1.6 µM.

For the compound `C#Cc1cc(CNC(=O)/C=C/c2ccc(C(F)(F)F)nc2SC(C)C)cc(F)c1NS(C)(=O)=O` [Example 177, N-(3-Ethynyl-5-fluoro-4-methanesulfonylamino-benzyl)-3-(2-isopropylthio-6-trifluoromethyl-pyridin-3-yl)-acrylamide], the IC50 was 0.2 µM.

On to `C#Cc1cc(CNC(=O)/C=C/c2ccc(N3CCOCC3)nc2)cc(F)c1NS(C)(=O)=O` [Examples 23], for which the IC50 was more than 10 µM.

Turning to `C#Cc1cc(CNC(=O)/C=C/c2ccc(C(F)(F)F)nc2-c2ccc(F)nc2)cc(F)c1NS(C)(=O)=O` [Example 135], the IC50 came to 2.3 µM.

Regarding `C=CS(=O)(=O)Nc1ccc(CNC(=O)/C=C/c2ccc(C(F)(F)F)nc2CCc2ccccc2)cc1` [Example 268, N-(4-Ethenesulfonylamino-benzyl)-3-(2-phenethyl-6-trifluoromethyl-pyridin-3-yl)-acrylamide], the IC50 is 2.9 µM.

With `CCNc1nc(C(F)(F)F)ccc1/C=C/C(=O)NCc1cc(F)c(NS(C)(=O)=O)c(F)c1` [Example 257, N-(3,5-Difluoro-4-methanesulfonylamino-benzyl)-3-(2-ethylamino-6-trifluoromethyl-pyridin-3-yl)-acrylamide], the IC50 turned out to be 0.056 µM.

With `CCCCOc1nc(C(F)(F)F)ccc1/C=C/C(=O)NCc1cc(F)c(NS(C)(=O)=O)c(C(F)(F)F)c1` [Example 168, 3-(2-Butoxy-6-trifluoromethyl-pyridin-3-yl)-N-(3-fluoro-4-methanesulfonylamino-5-trifluoromethyl-benzyl)-acrylamide], the IC50 turned out to be 1.8 µM.

Consider `CC(C)(C)c1ccc(OCC(=O)NCc2ccc(NS(C)(=O)=O)c(F)c2)c(Cl)n1` [Example 30, 2-(6-tert-Butyl-2-chloro-pyridin-3-yloxy)-N-(3-fluoro-4-methanesulfonylamino-benzyl)-acetamide], for which the half-inhibitory concentration (IC50) stood at 3.8 µM.

For `CCC(C)c1nc(C(F)(F)F)ccc1/C=C/C(=O)NCc1cc(F)c(NS(C)(=O)=O)c(F)c1` (stereo not shown) [Example 235, N-(3,5-Difluoro-4-methanesulfonylamino-benzyl)-3-(2-sec-butyl-6-trifluoromethyl-pyridin-3-yl)-acrylamide], the IC50 was found to be 0.19 µM.

In the case of `C#Cc1cc(CNC(=O)C=Cc2ccc(C(F)(F)F)nc2C#C)cc(F)c1NS(C)(=O)=O` [Example 145, N-(3-Ethynyl-5-fluoro-4-methanesulfonylamino-benzyl)-3-(2-ethynyl-6-trifluoromethyl-pyridin-3-yl)-acrylamide], the IC50 is 1.9 µM.

For the compound `CCC(C)Nc1nc(C(F)(F)F)ccc1/C=C/C(=O)NCc1cc(F)c(NS(C)(=O)=O)c(C#N)c1` (stereo not shown) [Example 124, 3-(2-sec-Butylamino-6-trifluoromethyl-pyridin-3-yl)-N-(3-cyano-5-fluoro-4-methanesulfonylamino-benzyl)-acrylamide], the IC50 was 0.088 µM.

Take `C#Cc1cc(CNC(=O)/C=C/c2ccc(C(F)(F)F)nc2N2CCC[C@H]2CO)cc(F)c1NS(C)(=O)=O` (stereo in doubt) [Example 83, N-(3-Ethynyl-5-fluoro-4-methansulfonylamino-benzyl)-3-[2-(2-hydroxymethyl-pyrrolidin-1-yl)-6-trifluoromethyl-pyridin-3-yl]-acrylamide]: the concentration for half-maximal inhibition (IC50) amounted to 2.1 µM.

As to `CCCCc1nc(C(F)(F)F)ccc1C#CC(=O)N[C@H](C)c1cc(F)c(NS(C)(=O)=O)c(F)c1` [Example 262, 3-(2-Butyl-6-trifluoromethyl-pyridin-3-yl)-propynoic acid [1-(3,5-difluoro-4-methanesulfonylamino-phenyl)-ethyl]-amide], the IC50 came to 0.15 µM.

Consider `CC(C)(C)c1ccc(/C=C/C(=O)NCc2ccc(NS(C)(=O)=O)c(F)c2)c(Br)n1` [Example 36, 3-(2-Bromo-6-tert-butyl-pyridin-3-yl)-N-(3-fluoro-4-methanesulfonylamino-benzyl)-acrylamide], for which the IC50 came to 0.18 µM.

Regarding `CCCCc1nc(C(F)(F)F)ccc1C#CC(=O)NCc1cc(F)c(NS(C)(=O)=O)c(F)c1` [Example 261, 3-(2-Butyl-6-trifluoromethyl-pyridin-3-yl)-propynoic acid 3,5-difluoro-4-methanesulfonylamino-benzylamide], the 50% inhibitory concentration (IC50) came to 0.35 µM.

On to `C#Cc1cc(CNC(=O)/C=C/c2ccc(C(F)(F)F)nc2NCCC)cc(F)c1NS(C)(=O)=O` [Example 221, N-(3-Ethynyl-5-fluoro-4-methanesulfonylamino-benzyl)-3-(2-propylamino-6-trifluoromethyl-pyridin-3-yl)-acrylamide], for which the IC50 is 0.023 µM.

Take `Cc1cc(CNC(=O)/C=C/c2ccc(C(F)(F)F)nc2CCc2ccccc2)cc(F)c1NS(C)(=O)=O` [Example 173, N-(3-Fluoro-4-methanesulfonylamino-5-methyl-benzyl)-3-(2-phenethyl-6-trifluoromethyl-pyridin-3-yl)-acrylamide]: the IC50 was 0.2 µM.
